Results: US20240228535A1 (priority 2022, published 2024)

target: SARS2 coronavirus 3CL protease (Severe acute respiratory syndrome coronavirus 2, UniProt P0DTD1); test: biochemical; settings: 5 nM enzyme, 30 min pre-incubation with compound, 15 μM peptide substrate, 4 h at room temperature; read-out: FRET Potency (nM); IC50 values in the SARS2 3CLPro FRET assay

Point of comparison: `C[C@@H]1C[C@@H](C[C@H](NC(=O)c2cc(C#N)ccc2NC(=O)C23CC(C(F)(F)F)(C2)C3)C(=O)C(=O)NC2CC2)C(=O)N1` [Example 17], IC50 31.1 nM. Against it:
- CNC(=O)C(=O)[C@H](C[C@@H]1C[C@@H](C)NC1=O)NC(=O)c1cc(Cl)ccc1NC(=O)C1CC1(F)F (single isomer, unassigned) [Example 14] — within 1.5-fold, 46.4 nM
- CNC(=O)C(=O)[C@H](C[C@@H]1C[C@@H](C)NC1=O)NC(=O)c1cc(Cl)ccc1NC(=O)C1CCC(F)(F)C1 (single isomer, unassigned) [Example 16] — within 1.5-fold, 31.6 nM
- CNC(=O)C(=O)[C@H](C[C@@H]1C[C@@H](C)NC1=O)NC(=O)c1cc(Cl)ccc1NC(=O)C1CC1(F)F (single isomer, unassigned) [Example 60] — 3.9-fold lower, 7.9 nM
- CNC(=O)C(=O)[C@H](C[C@@H]1C[C@@H](C)NC1=O)NC(=O)c1cc(Cl)ccc1NC(=O)C1CCC(F)(F)C1 (single isomer, unassigned) [Example 65] — 4.3-fold lower, 7.2 nM
- CNC(=O)C(=O)[C@H](C[C@@H]1C[C@@H](C)NC1=O)NC(=O)c1cc(Cl)ccc1NC(=O)C1CCCC(F)(F)C1 (single isomer, unassigned) [Example 198] — 5.7-fold lower, 5.5 nM
- CNC(=O)C(=O)[C@H](C[C@@H]1C[C@@H](C)NC1=O)NC(=O)c1cc(Cl)ccc1NC(=O)C1CCCC(F)(F)C1 (single isomer, unassigned) [Example 199] — 1.7-fold lower, 18.7 nM
- CNC(=O)C(=O)[C@H](C[C@@H]1C[C@@H](C)NC1=O)NC(=O)c1cc(Cl)ccc1NC(=O)C(C)c1ccc(C(F)(F)F)nc1 (single isomer, unassigned) [Example 229] — within 1.5-fold, 33.5 nM
- CNC(=O)C(=O)[C@H](C[C@@H]1C[C@@H](C)NC1=O)NC(=O)c1cc(Cl)ccc1NC(=O)C(C)c1ccc(C(F)(F)F)nc1 (single isomer, unassigned) [Example 230] — 4.4-fold lower, 7 nM
- C[C@@H]1C[C@@H](C[C@H](NC(=O)c2cc(Cl)ccc2NC(=O)C2(C(F)(F)F)CC2)C(=O)C(=O)NC2CC2)C(=O)N1 [Example 1, 5-chloro-N—((S)-4-(cyclopropylamino)-1-((3S,5R)-5-methyl-2-oxopyrrolidin-3-yl)-3,4 dioxobutan-2-yl)-2-(1-(trifluoromethyl)cyclopropane-1-carboxamido)benzamide] — 4.1-fold lower, 7.5 nM
- C[C@@H]1C[C@@H](C[C@H](NC(=O)c2cc(Cl)ccc2NC(=O)c2ccnc(C(F)(F)F)c2)C(=O)C(=O)NC2CC2)C(=O)N1 [Example 2, N-(4-chloro-2-(((S)-4-(cyclopropylamino)-1-((3S,5R)-5-methyl-2-oxopyrrolidin-3-yl)-3,4-dioxobutan-2-yl)carbamoyl)phenyl)-2-(trifluoromethyl)isonicotinamide] — 5.6-fold lower, 5.6 nM
- C[C@@H]1C[C@@H](C[C@H](NC(=O)c2cc(Cl)ccc2NC(=O)CCC(F)(F)F)C(=O)C(=O)NC2CC2)C(=O)N1 [Example 3, 5-chloro-N—((S)-4-(cyclopropylamino)-1-((3S,5R)-5-methyl-2-oxopyrrolidin-3-yl)-3,4-dioxobutan-2-yl)-2-(4,4,4-trifluorobutanamido)benzamide] — 4.5-fold lower, 6.9 nM
- CNC(=O)C(=O)[C@H](C[C@@H]1C[C@@H](C)NC1=O)NC(=O)c1cc(C#N)cnc1NC(=O)c1cc(C(F)(F)F)cc(C(F)(F)F)c1 [Example 4, 2-(3,5-bis(trifluoromethyl)benzamido)-5-cyano-N—((S)-1-((3S,5R)-5-methyl-2-oxopyrrolidin-3-yl)-4-(methylamino)-3,4-dioxobutan-2-yl)nicotinamide] — 2.7-fold lower, 11.5 nM
- C[C@@H]1C[C@@H](C[C@H](NC(=O)c2cc(Cl)cnc2NC(=O)C23CC(C(F)(F)F)(C2)C3)C(=O)C(=O)NC2CC2)C(=O)N1 [Example 5, 5-chloro-N—((S)-4-(cyclopropylamino)-1-((3S,5R)-5-methyl-2-oxopyrrolidin-3-yl)-3,4-dioxobutan-2-yl)-2-(3-(trifluoromethyl)bicyclo[1.1.1]pentane-1-carboxamido)nicotinamide] — 3.6-fold lower, 8.7 nM
- CC(C)OC(=O)Nc1ccc(Cl)cc1C(=O)N[C@@H](C[C@@H]1C[C@@H](C)NC1=O)C(=O)C(=O)NC1CC1 [Example 6, isopropyl (4-chloro-2-(((S)-4-(cyclopropylamino)-1-((3S,5R)-5-methyl-2-oxopyrrolidin-3-yl)-3,4-dioxobutan-2-yl)carbamoyl)phenyl)carbamate] — 6.5-fold lower, 4.8 nM
- C[C@@H]1C[C@@H](C[C@H](NC(=O)c2cc(Cl)ccc2NC(=O)[C@H]2CC2(F)F)C(=O)C(=O)NC2CC2)C(=O)N1 [Example 8, 5-chloro-N—((S)-4-(cyclopropylamino)-1-((3S,5R)-5-methyl-2-oxopyrrolidin-3-yl)-3,4-dioxobutan-2-yl)-2-((R)-2,2-difluorocyclopropane-1-carboxamido)benzamide] — 3.1-fold lower, 10.1 nM
- CNC(=O)C(=O)[C@H](C[C@@H]1C[C@@H](C)NC1=O)NC(=O)c1cc(Cl)ccc1NC(=O)OC [Example 9, methyl (4-chloro-2-(((S)-1-((3S,5R)-5-methyl-2-oxopyrrolidin-3-yl)-4-(methylamino)-3,4-dioxobutan-2-yl)carbamoyl)phenyl)carbamate] — 4.3-fold lower, 7.3 nM
- CNC(=O)C(=O)[C@H](C[C@@H]1C[C@@H](C)NC1=O)NC(=O)c1cc(Cl)ccc1NC(=O)OC1CC1 [Example 10, cyclopropyl (4-chloro-2-(((S)-1-((3S,5R)-5-methyl-2-oxopyrrolidin-3-yl)-4-(methylamino)-3,4-dioxobutan-2-yl)carbamoyl)phenyl)carbamate] — 8-fold lower, 3.9 nM
- CNC(=O)C(=O)[C@H](C[C@@H]1CCNC1=O)NC(=O)c1cc(Cl)ccc1NC(=O)OC1CC1 [Example 11, cyclopropyl (4-chloro-2-(((S)-4-(methylamino)-3,4-dioxo-1-((S)-2-oxopyrrolidin-3-yl)butan-2-yl)carbamoyl)phenyl)carbamate] — 6.5-fold lower, 4.8 nM
- O=C(NC1CC1)C(=O)[C@H](C[C@@H]1CCNC1=O)NC(=O)c1cc(F)ccc1NC(=O)C1(C(F)(F)F)CC1 [Example 12, N-[(1S)-3-(cyclopropylamino)-2,3-dioxo-1-[[(3S)-2-oxopyrrolidin-3-yl]methyl]propyl]-5-fluoro-2-[[1-(trifluoromethyl)cyclopropane-carbonyl]amino]benzamide] — 1.5-fold higher, 48.2 nM
- C[C@@H]1C[C@@H](C[C@H](NC(=O)c2cc(C#N)ccc2NC(=O)C23CC(F)(C2)C3)C(=O)C(=O)NC2CC2)C(=O)N1 [Example 13] — 1.5-fold higher, 46.7 nM
- C[C@@H]1C[C@@H](C[C@H](NC(=O)c2cc(Cl)ccc2NC(=O)C(C)(C)C(F)(F)F)C(=O)C(=O)NC2CC2)C(=O)N1 [Example 15, 5-chloro-N-[(1S)-3-(cyclopropylamino)-1-[[(3S,5R)-5-methyl-2-oxo-pyrrolidin-3-yl]methyl]-2,3-dioxo-propyl]-2-[(3,3,3-trifluoro-2,2-dimethyl-propanoyl)amino]benzamide] — within 1.5-fold, 33.5 nM
- CNC(=O)C(=O)[C@H](C[C@@H]1C[C@@H](C)NC1=O)NC(=O)c1cc(OC(F)F)cnc1NC(=O)c1cccc(C(F)(F)F)c1 [Example 18, 5-(difluoromethoxy)-N-[(1S)-3-(methylamino)-1-[[(3S,5R)-5-methyl-2-oxo-pyrrolidin-3-yl]methyl]-2,3-dioxo-propyl]-2-[[3-(trifluoromethyl)benzoyl]amino]pyridine-3-carboxamide] — the same, 31.1 nM
- CNC(=O)C(=O)[C@H](C[C@@H]1C[C@@H](C)NC1=O)NC(=O)c1cc(Cl)ccc1NC(=O)C(C)C(F)(F)F (stereo partly drawn) [Example 19, 5-chloro-N-[(1S)-3-(methylamino)-1-[[(3S,5R)-5-methyl-2-oxo-pyrrolidin-3-yl]methyl]-2,3-dioxo-propyl]-2-[(3,3,3-trifluoro-2-methyl-propanoyl)amino]benzamide] — within 1.5-fold, 28.2 nM
- C[C@@H]1C[C@@H](C[C@H](NC(=O)c2cc(OC(F)F)ccc2NC(=O)c2cccc(C(F)(F)F)c2)C(=O)C(=O)NC2CC2)C(=O)N1 [Example 20, N-[(1S)-3-(cyclopropylamino)-1-[[(3S,5R)-5-methyl-2-oxo-pyrrolidin-3-yl]methyl]-2,3-dioxo-propyl]-5-(difluoromethoxy)-2-[[3-(trifluoromethyl)benzoyl]amino]benzamide] — within 1.5-fold, 26.4 nM
- CNC(=O)C(=O)[C@H](C[C@@H]1C[C@@H](C)NC1=O)NC(=O)c1cc(Cl)ccc1NC(=O)C1CC(F)(F)C1 [Example 21, 5-chloro-2-[(3,3-difluorocyclobutanecarbonyl)amino]-N-[(1S)-3-(methylamino)-1-[[(3S,5R)-5-methyl-2-oxo-pyrrolidin-3-yl]methyl]-2,3-dioxo-propyl]benzamide] — within 1.5-fold, 24.9 nM
- C[C@@H]1C[C@@H](C[C@H](NC(=O)c2cc(Cl)cnc2NC(=O)C2(C(F)(F)F)CC2)C(=O)C(=O)NC2CC2)C(=O)N1 [Example 22, 5-chloro-N-[(1S)-3-(cyclopropylamino)-1-[[(3S,5R)-5-methyl-2-oxo-pyrrolidin-3-yl]methyl]-2,3-dioxo-propyl]-2-[[1-(trifluoromethyl)cyclopropane-carbonyl]amino]pyridine-3-carboxamide] — within 1.5-fold, 22.6 nM
- C[C@@H]1C[C@@H](C[C@H](NC(=O)c2cc(F)cnc2NC(=O)C2CC(F)(F)C2)C(=O)C(=O)NC2CC2)C(=O)N1 [Example 23, N-[(1S)-3-(cyclopropylamino)-1-[[(3S,5R)-5-methyl-2-oxo-pyrrolidin-3-yl]methyl]-2,3-dioxo-propyl]-2-[(3,3-difluorocyclobutanecarbonyl)amino]-5-fluoro-pyridine-3-carboxamide] — 1.5-fold lower, 20.6 nM
- CNC(=O)C(=O)[C@H](C[C@@H]1C[C@@H](C)NC1=O)NC(=O)c1cc(Cl)ccc1NC(=O)C(C)C(F)(F)F (stereo partly drawn) [Example 24, 5-chloro-N-[(1S)-3-(methylamino)-1-[[(3S,5R)-5-methyl-2-oxo-pyrrolidin-3-yl]methyl]-2,3-dioxo-propyl]-2-[(3,3,3-trifluoro-2-methyl-propanoyl)amino]benzamide] — 1.7-fold lower, 18.6 nM
- C[C@@H]1C[C@@H](C[C@H](NC(=O)c2cc(F)ccc2NC(=O)C2(C(F)(F)F)CC2)C(=O)C(=O)NC2CC2)C(=O)N1 [Example 25, N-[(1S)-3-(cyclopropylamino)-1-[[(3S,5R)-5-methyl-2-oxo-pyrrolidin-3-yl]methyl]-2,3-dioxo-propyl]-5-fluoro-2-[[1-(trifluoromethyl)cyclopropane-carbonyl]amino]benzamide] — 1.7-fold lower, 18.1 nM
